In patent US10745382B2 (BRISTOL-MYERS SQUIBB COMPANY, priority 2015, dated 2020):
pIC50: −log10 of the molar value.

Target: T1, PD-1/PD-L1 (Homo sapiens, UniProt Q9NZQ7)
T1 construct: made in house; host or cells: HEK293T
Assay: PD-1/PD-L1 Homogenous Time-Resolved Fluorescence (HTRF) binding assay
Conditions: PD-L1-His 10 nM, PD-1-Ig 20 nM; value given as range class; read-out: Range or IC50
How it was run: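 Binding was measured by HTRF in dPBS with 0.1% BSA and 0.05% Tween-20. Detection used europium cryptate anti-Ig (1 nM final) and APC anti-His (20 nM final) added over the binding reaction.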

T1 sequence (Q9NZQ7 with tags, fused parts or gaps): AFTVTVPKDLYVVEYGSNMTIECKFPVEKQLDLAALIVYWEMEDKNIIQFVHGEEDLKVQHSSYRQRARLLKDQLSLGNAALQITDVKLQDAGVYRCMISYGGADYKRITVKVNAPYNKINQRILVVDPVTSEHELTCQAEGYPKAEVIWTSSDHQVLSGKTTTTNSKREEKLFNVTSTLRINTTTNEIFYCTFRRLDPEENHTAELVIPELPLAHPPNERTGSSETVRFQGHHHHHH

SMILES	pIC50
C[C@](CO)(NCc1cc(Cl)c(OCc2cccc(-c3cccc(OCCCN4CCC(O)(CO)CC4)c3Cl)c2Cl)cc1OCc1cncc(C#N)c1)C(=O)O [Example 2065, (R)-2-((5-chloro-2-((5-cyanopyridin-3-yl)methoxy)-4-((2,2′-dichloro-3′-(3-(4-hydroxy-4-(hydroxymethyl)piperidin-1-yl)propoxy)-[1,1′-biphenyl]-3-yl)methoxy)benzyl)amino)-3-hydroxy-2-methylpropanoic Acid]	8.00 to 9.68
CC(CO)(CO)NCc1cc(Cl)c(OCc2cccc(-c3cccc(OCCCNC[C@H](O)CO)c3Cl)c2Cl)cc1OCc1cncc(C#N)c1 [Example 2054, (S)-5-((4-chloro-5-((2,2′-dichloro-3′-(3-((2,3-dihydroxypropyl)amino)propoxy)-[1,1′-biphenyl]-3-yl)methoxy)-2-(((1,3-dihydroxy-2-methylpropan-2-yl)amino)methyl)phenoxy)methyl)nicotinonitrile]	8.00 to 9.68
Cc1c(COc2cc(OCc3cncc(C#N)c3)c(CO)cc2Cl)cccc1-c1cccc(OCCCN2CCCCC2)c1Cl [Example 2018, 5-((4-chloro-5-((2′-chloro-2-methyl-3′-(3-(piperidin-1-yl)propoxy)-[1,1′-biphenyl]-3-yl)methoxy)-2-(hydroxymethyl)phenoxy)methyl)nicotinonitrile]	8.00 to 9.68
CCOC(=O)C1(O)CCN(CCCOc2cccc(-c3cccc(COc4cc(OCc5cncc(C#N)c5)c(CN[C@](C)(CO)C(=O)O)cc4Cl)c3C)c2Cl)CC1 [Example 1098, (R)-2-((5-chloro-4-((2′-chloro-3′-(3-(4-(ethoxycarbonyl)-4-hydroxypiperidin-1-yl)propoxy)-2-methyl-[1,1′-biphenyl]-3-yl)methoxy)-2-((5-cyanopyridin-3-yl)methoxy)benzyl)amino)-3-hydroxy-2-methylpropanoic Acid]	8.00 to 9.68
Cc1c(COc2cc(OCc3cncc(C#N)c3)c(CN3CCCC[C@H]3C(=O)O)cc2Cl)cccc1-c1cccc(OCCCN2CCN(CC(=O)NC(C)C)CC2)c1C [Example 2217, (2S)-1-(5-chloro-2-((5-cyanopyridin-3-yl)methoxy)-4-((3′-(3-(4-(2-(isopropylamino)-2-oxoethyl)piperazin-1-yl)propoxy)-2,2′-dimethylbiphenyl-3-yl)methoxy)benzyl)piperidine-2-carboxylic Acid]	8.00 to 9.68
Cc1c(COc2cc(OCc3cncc(C#N)c3)c(CN3CCC[C@H](C(=O)O)C3)cc2Cl)cccc1-c1cccc(OCCCN2CCC[C@H](C(=O)O)C2)c1C [Example 2259, (3S)-1-(3-(3′-((4-(((S)-3-carboxypiperidin-1-yl)methyl)-2-chloro-5-((5-cyanopyridin-3-yl)methoxy)phenoxy)methyl)-2,2′-dimethylbiphenyl-3-yloxy)propyl)piperidine-3-carboxylic Acid]	8.00 to 9.68
Cc1c(COc2cc(OCc3cncc(C#N)c3)c(CN3CCCC[C@H]3C(=O)O)cc2Cl)cccc1-c1cccc(OC[C@@H]2CCCN3CCCC[C@H]23)c1C [Example 1043, (S)-1-(5-chloro-2-((5-cyanopyridin-3-yl)methoxy)-4-((2,2′-dimethyl-3′-(((1R,9aR)-octahydro-1H-quinolizin-1-yl)methoxy)-[1,1′-biphenyl]-3-yl)methoxy)benzyl)piperidine-2-carboxylic Acid]	8.00 to 9.68
Cc1c(COc2cc(OCc3cncc(C#N)c3)c(CN3CCCC[C@H]3C(=O)O)cc2Cl)cccc1-c1cccc(OCCCN2CC(N(C)C)C2)c1C [Example 2232, (2S)-1-(5-chloro-2-((5-cyanopyridin-3-yl)methoxy)-4-((3′-(3-(3-(dimethylamino)azetidin-1-yl)propoxy)-2,2′-dimethylbiphenyl-3-yl)methoxy)benzyl)piperidine-2-carboxylic Acid]	8.00 to 9.68
Cc1c(COc2cc(OCc3cncc(C#N)c3)c(CN3CCCC[C@H]3C(=O)O)cc2Cl)cccc1-c1cccc(OCCCN2CCOCC2CO)c1C (stereo partly drawn) [Example 3050, (2S)-1-(5-chloro-2-((5-cyanopyridin-3-yl)methoxy)-4-((3′-(3-(3-(hydroxymethyl)morpholino)propoxy)-2,2′-dimethyl-[1,1′-biphenyl]-3-yl)methoxy)benzyl)piperidine-2-carboxylic Acid]	8.00 to 9.68
N#Cc1cncc(COc2cc(OCc3cccc(-c4cccc(OCCCN5CCCCC5)c4Cl)c3Cl)c(Cl)cc2CN2CCCC[C@H]2C(=O)O)c1 [Example 2045, (S)-1-(5-chloro-2-((5-cyanopyridin-3-yl)methoxy)-4-((2,2′-dichloro-3′-(3-(piperidin-1-yl)propoxy)-[1,1′-biphenyl]-3-yl)methoxy)benzyl)piperidine-2-carboxylic Acid]	8.00 to 9.68

Continued, values first:

pIC50	SMILES
8.00 to 9.68	CCOC(=O)[C@H](CO)NCc1cc(Cl)c(OCc2cccc(-c3cccc(OCCCN4CC[C@@H](O)C4)c3C)c2C)cc1OCc1cncc(C#N)c1 [Example 3066, (S)-ethyl 2-((5-chloro-2-((5-cyanopyridin-3-yl)methoxy)-4-((3′-(3-((R)-3-hydroxypyrrolidin-1-yl)propoxy)-2,2′-dimethyl-[1,1′-biphenyl]-3-yl)methoxy)benzyl)amino)-3-hydroxypropanoate]
8.00 to 9.68	Cc1c(COc2cc(OCc3cncc(C#N)c3)c(CN[C@@](C)(CO)C(=O)O)cc2Cl)cccc1-c1cccc(OCCCN2CC[C@@H](O)C2)c1C(F)F [Example 1514, (S)-2-((5-chloro-2-((5-cyanopyridin-3-yl)methoxy)-4-((2′-(difluoromethyl)-3′-(3-((R)-3-hydroxypyrrolidin-1-yl)propoxy)-2-methyl-[1,1′-biphenyl]-3-yl)methoxy)benzyl)amino)-3-hydroxy-2-methylpropanoic acid]
8.00 to 9.68	Cc1c(COc2cc(OCc3cncc(C#N)c3)c(CN3CCOC[C@H]3CO)cc2Cl)cccc1-c1cccc(OCCCN2CC[C@@H](O)C2)c1Cl [Example 2115, 5-((4-chloro-5-((2′-chloro-3′-(3-((R)-3-hydroxypyrrolidin-1-yl)propoxy)-2-methyl-[1,1′-biphenyl]-3-yl)methoxy)-2-(((R)-3-(hydroxymethyl)morpholino)methyl)phenoxy)methyl)nicotinonitrile]
8.00 to 9.68	Cc1cc(OCc2cccc(-c3cccc(OCCCN4CC[C@@H](O)C4)c3C)c2C)cc(OCc2cncc(C#N)c2)c1CNC(CO)(CO)CO [Example 4089, (R)-5-((2-(((1,3-dihydroxy-2-(hydroxymethyl)propan-2-yl)amino)methyl)-5-((3′-(3-(3-hydroxypyrrolidin-1-yl)propoxy)-2,2′-dimethyl-[1,1′-biphenyl]-3-yl)methoxy)-3-methylphenoxy)methyl)nicotinonitrile]
8.00 to 9.68	Cc1c(COc2cc(OCc3cncc(C#N)c3)c(CN3CCCC[C@H]3C(=O)O)cc2Cl)cccc1-c1cccc(OCCCN2CCC[C@@H](O)C2)c1C [Example 2223, (2S)-1-(5-chloro-2-((5-cyanopyridin-3-yl)methoxy)-4-((3′-(3-((R)-3-hydroxypiperidin-1-yl)propoxy)-2,2′-dimethylbiphenyl-3-yl)methoxy)benzyl)piperidine-2-carboxylic Acid]
8.00 to 9.68	Cc1c(COc2cc(OCc3cncc(C#N)c3)c(CN[C@](C)(CO)C(=O)O)cc2Cl)cccc1-c1cccc(OCCCN2CCC(O)(c3ccccc3)C2)c1C (stereo partly drawn) [Example 3038, (2R)-2-((5-chloro-2-((5-cyanopyridin-3-yl)methoxy)-4-((3′-(3-(3-hydroxy-3-phenylpyrrolidin-1-yl)propoxy)-2,2′-dimethyl-[1,1′-biphenyl]-3-yl)methoxy)benzyl)amino)-3-hydroxy-2-methylpropanoic Acid]
